Four compounds from US20120237937A1, “METHODS TO DETECT CANCER IN ANIMALS” (UNIVERSITY OF LOUISVILLE RESEARCH FOUNDATION, INC., priority 2009, published 2012) can be followed below.

One data set has as its system lung tumor. In words: Response of lung lesions of patient 25b to Erlotinib. The format is in vivo, human. As to conditions: Stage I. The source says:
The horizontal dotted line represents a ratio of 1. […] See also, Fan et al. (2009) Exp. Molec. Pathol. 87, 83-86.

Data set [1] in a line: NMR 13C-isotopomer profiling of TCA extracts of paired non-cancerous and cancerous lung tissues. As to conditions: in vivo. As to the method:
Lung cancer patients were recruited based on the criteria of surgical eligibility and no history of diabetes. Each patient was consented in accordance with the U.S. HIPAA regulations. The following patient protocol was approved by the Internal Review Board at the University of Louisville. Ten grams uniformly ^13C labeled glucose ([U-^13C]-Glc or ^13C6-Glc or ^13C6-Glucose) in sterile saline solution were infused i.v. over a 30 min time period into each patient in the pre-op room approximately 3 or 12 hr prior to resection. Whole blood samples were collected into a vacutainer containing the anticoagulant K3EDTA or K3-EDTA before and after [U-^13C]-Glc infusion as well as after the surgery. Additional blood samples were collected 3 and 12 hr after the [U-^13C]-Glc infusion for the 12 hr treatment cases. […] The blood samples were placed on ice immediately after collection and centrifuged at 4° C. at 3,500×g for 15 min to recover the plasma fraction. All blood samples were aliquoted and flash-frozen in liquid N2 within 30 min of collection. Potassium EDTA was used as an anti-coagulant to minimize metabolic artifacts associated with anti-coagulation; it also served to remove the influence of interfering cations such as paramagnetic Fe^3+ and Cu^2+ for NMR analysis.
All timings from first incision to cutting arteries and veins to the lung were recorded so that the period of ischemia could be determined immediately after tissue resection, excess blood was blotted from the tissue, and small pieces of non-cancerous and tumor tissue were cut by the surgeon and freeze-clamped in liquid N2 within 5 minutes of removal from the chest cavity. The freezing process arrested metabolic changes almost instantaneously. […] Non-cancerous tissue was removed at least 2 cm from the tumor margin and certified to be tumor-free by trained pathologists. Subsequent pathological evaluation also confirmed tumor status and provided the tumor stage. All samples were stored at −80° C. until further processing for analysis.
Frozen tissue samples were pulverized into <10 μm particles in liquid N2 using a Spex freezer mill (Spex CertiPrep, Inc., Metuchen, N.J.) to maximize efficiency for subsequent extraction while maintaining biochemical integrity. An aliquot of the frozen powder was lyophilized before extraction for metabolites.
Water-soluble or polar metabolites were extracted from lyophilized tissue powders (4-48 mg) in ice-cold 10% trichloroacetic acid (TCA) (v/w minimum 40/1) while leaving proteins, nucleic acids, and polysaccharides behind, as described previously (Kim et al. Antioxidants & Redox Signaling 2001, 3:361-373). The extraction was performed twice for quantitative recovery. An aliquot (150 μl) of plasma samples were made to final 10% TCA concentration to precipitate proteins and recover metabolites in the supernatant. TCA was then removed from tissue or plasma extracts by lyophilization. The dry pellet was dissolved in nanopure water and two small aliquots were lyophilized for silylation and GC-MS analysis while the remaining bulk was passed through a Chelex 100 resin column (Bio-Rad Laboratories, Inc., Hercules, Calif.) to neutralize and remove interfering multivalent cations for NMR analysis.
The ^1H reference standard, DSS (2,2-Dimethyl-2-silapentane-5-sulfonate sodium salt) was added (30 or 50 nmoles) to the TCA extracts of tissue or plasma samples, respectively. […]

The nature of data set [2]: Time course of plasma 13C-glucose and 13C-lactate in SCID mice by NMR. Type of data set: in vivo, SCID mouse. As to the method: (§1) A 20% solution of glucose in normal saline was sterile-filtered. 100 μL of this solution, or a 1:10 dilution (2%) were injected into the tail vein of a restrained mouse without anesthesia.
Approximately 50 μL samples of blood were taken intraorbitally at timed intervals, chilled and separated into plasma and whole blood by centrifugation at 4° C. at 3,000 g for 5 minutes. Plasma was flash frozen in liquid N2 for storage prior to workup.
Twenty to thirty μl of plasma was made to 10% trichloroacetic acid (TCA) and centrifuged at 4° C., at ≧22,000 g for 20 minutes to remove denatured proteins. The polar supernatant was lyophilized to remove TCA before preparation for NMR and GC-MS analysis.
(§2) NMR spectra were recorded at 14.1 T on a Varian Inova spectrometer equipped with a 5 mm inverse triple resonance cold probe, at 20° C. 1D NMR spectra were recorded with an acquisition time of 2 s and a recycle time of 5 sec. Concentrations of metabolites and ^13C incorporation were determined by peak integration of the ^1H NMR spectra referenced to the DSS methyl groups, with correction for differential relaxation, as previously described (See, Lane et al. (2008) Biophysical Tools for Biologists. 84: 541-588; Fan et al. (2008) Progress in NMR Spectroscopy 52: 69-117; Lane et al. (2007) Metabolomics 3: 79-86.). ^1H Spectra were typically processed with zero filling to 131 k points, and apodized with an unshifted Gaussian and a 0.5 Hz line broadening exponential.
The two SCID mice were injected via the tail vein with […] [U-^13C]-glucose. Blood was sequentially taken intraorbitally, and analyzed by NMR as described in the NMR Spectroscopy section. To assess the optimal time for metabolizing the ^13C6-glucose in mice, plasma samples were taken at 15-minute intervals and processed for NMR analysis. […] The initial glucose enrichment ranged from 30 to >50% depending on the size of the mouse, which means that the plasma glucose concentration was roughly doubled immediately after the bolus [U-^13C]-glucose injection. The % enrichment for glucose decreased rapidly and asymptotically within one hour, presumably via the normal homeostatic mechanism. […] The initial rate of ^13C lactate production was approximately equal to the initial rate of glucose consumption, but then decayed after about 20 minutes.

Data set [3] is described as follows: GC-MS analysis of 13C-mass isotopomers of lactate in plasma after [U-13C]-glucose infusion. The format is in vivo, human. As to conditions: in excess of natural abundance.
The nature of data set [4]: Isotopic enrichment in SCID mouse tissue lactate and glucose by 1D 1H NMR. As to conditions: Lac at C3, Glc at C1α. The format is in vivo. How it is done: as §1
Mice were sacrificed at different times post glucose injection, and the following organs were dissected sequentially: lung, heart, liver, kidney, brain, spleen, and thigh muscle. Dissected tissue was flash frozen in liquid N2 within 1 minute of killing the animal.
Frozen tissues were ground in liquid N2 to <10 μm particles in a 6750 Freezer/Mill (Retsch, Inc., Newtown, Pa.) and extracted for soluble and lipidic metabolites as follows. Up to 20 mg of frozen tissue powder in 15 ml polypropylene conical centrifuge tube (Sarstedt, Newton, N.C.) containing 3 mm diameter glass beads was vigorously mixed with 2 ml of cold acetonitrile (mass spectrometry grade, stored at −20° C.) to denature proteins, followed by addition of 1.5 ml nanopure water, and 1 ml HPLC-grade chloroform (Fisher Scientific). The mixture was shaken vigorously until achieving a milky consistency followed by centrifugation at 3,000 g for 20 minutes at 4° C. to separate the polar (top), lipidic (bottom), and tissue debris layers (interface). The polar and lipidic layers were recovered sequentially and the remaining cell debris was extracted again with 0.5 ml chloroform:methanol:butylated hydroxytoluene (BHT) (2:1:1 mM) which was pooled with the lipidic fraction. All three fractions were vacuum-dried in a speedvac device (Vacufuge, Eppendorf, New York, N.Y.) and/or by lyophylization. The dry weight of tissue debris was obtained for normalization of metabolite content. The polar extracts were redissolved in 100% D2O containing 30 nmol perdeuterated DSS (2,2-dimethyl-2-silapentane-5-sulfonate, Cambridge Isotope Laboratories, Andover, Mass.) as internal chemical shift and concentration reference for NMR measurement.
as §2
The same extracts from FIG. 9 were analyzed by NMR to complement the GC-MS analysis. The ^13C enrichment into glucose/glucose-6-phosphate and lactate was determined by 1D ^1H NMR. The enrichments at 15 and 30 minutes post infusion were substantial in all tissues, and peak lactate enrichments differed according to the metabolic activity or glucose uptake rates of the different tissues (Table 7).
Lac measured at C3, G1c measured at C1α by NMR

Data set [5] is described as follows: GC-MS quantification of total and 13C-enriched metabolites in paired normal and cancerous lung tissues.
A short description of data set [6]: Time course analysis of 13C-metabolites in plasma by 1H NMR after [U-13C]-Glc infusion. The format is in vivo, human. The note with it: 3 hrs after [U-13C]-glucose infusion, lung cancer patients. As to the method: The extraction was performed twice for quantitative recovery.
See Fan et al. (2008) Prog. NMR Spectrosc. 52, 69-117; Fan (1996) Prog. NMR Spectrosc 28, 161-219.
In order to determine the optimal time to sample tissue after infusing [U-^13C]-Glc into lung cancer patients, we used ^1H NMR to analyze the profiles of ^13C-labeled products in plasma samples at several time points. Other than the administered tracer itself ([U-^13C]-Glc), the major ^13C-labeled metabolite in plasma was lactate. Plasma samples were collected 0, 3, and 12 hr after [U-^13C]-Glc infusion, as described in the Patient Treatment and Sample Collection section above. Unlabeled glucose and lactate concentrations were quantified by 1-D ^1H NMR using DSS as the calibration standard. Their % ^13C enrichment was determined from the respective ^13C satellite peaks in 1-D ^1H NMR spectra. Panels A-D illustrate the time course changes in glucose and lactate concentrations as well as their % ^13C enrichment. […] The chemical shifts of lactate and Ala reflected the acidic pH of the TCA extract.

As for `C#Cc1cccc(Nc2ncnc3cc(OCCOC)c(OCCOC)cc23)c1` [Erlotinib], the response of lesion entry is given as “responded” with lung tumor (lower lobe (LL) lesion) and “did not” in the data set on lung tumor (upper lobe (UL) lesion).
In the case of `O[13CH2][13C@H]1O[13CH](O)[13C@H](O)[13C@@H](O)[13C@@H]1O` (stereo partly drawn) [[U-^13C]-Glucose, uniformly ^13C labeled glucose, reference compound], the “% 13C enrichment of metabolite in lung tissue” value in data set [1] turned out to be 15.5%. In data set [2] (mouse, in vivo), the “apparent half-life in plasma” value was in the range of 16 to 22 min and the “initial % 13C enrichment in plasma” value came out at 65%.
As for `[13CH3][13CH](O)[13C](=O)O` (stereo not drawn) [[U-^13C]-Lactate, uniformly ^13C labeled lactate], the “Percentage distribution of 13C-mass isotopomers of lactate in plasma” value worked out at 1.89% in data set [3] (patient #6, [U-13C]-glucose 3 h); 4.84% in data set [3] (patient #7, [U-13C]-glucose 3 h); 3.31% in data set [3] (patient #8, [U-13C]-glucose 3 h); 3.47% in data set [3] (patient #9, [U-13C]-glucose 3 h); 6.37% in data set [3] (patient #10, [U-13C]-glucose 3 h).
Turning to `CC(O)C(=O)O` (stereo not drawn) [lactate], in data set [2] (SCID mice, after [U-13C]-glucose bolus), the “peak % 13C enrichment in plasma” value is on record as 8-12%. Moreover, the “time of peak 13C enrichment in plasma” value in data set [2] (SCID mice, post injection) lay within 15 to 20 min. Moreover, the “% 13C isotopic enrichment in tissue” value in data set [4] (Heart, 15 min) worked out at 25%; in data set [4] (Heart, 30 min), 33%; in data set [4] (Kidney, 15 min), 19%; in data set [4] (Kidney, 30 min), 17%; in data set [4] (Liver, 15 min), 11%; in data set [4] (Liver, 30 min), 13%. The “% 13C isotopic enrichment in tissue” value was 20% in data set [4] (Lung N, 15 min); 17% in data set [4] (Lung N, 30 min); 17% in data set [4] (Thigh muscle, 15 min); 11% in data set [4] (Thigh muscle, 30 min). Besides, the “metabolite content of lung tissue” value was found to be 29.55 μmole/g dry weight in data set [5] (patient #6 (sqC, grade II), cancer tissue); 2.66 μmole/g dry weight in data set [5] (patient #6 (sqC, grade II), normal tissue); 10.62 μmole/g dry weight in data set [5] (patient #7 (adenoC, grade II), cancer tissue); 11.80 μmole/g dry weight in data set [5] (patient #7 (adenoC, grade II), normal tissue); 17.72 μmole/g dry weight in data set [5] (patient #8 (sqC, grade II-III), cancer tissue); 9.44 μmole/g dry weight in data set [5] (patient #8 (sqC, grade II-III), normal tissue). Also, the “metabolite content of lung tissue” value is 25.31 μmole/g dry weight in data set [5] (patient #9 (sqC, grade II), cancer tissue); 19.52 μmole/g dry weight in data set [5] (patient #9 (sqC, grade II), normal tissue); 29.67 μmole/g dry weight in data set [5] (patient #10 (sqC, grade III), cancer tissue); 8.27 μmole/g dry weight in data set [5] (patient #10 (sqC, grade III), normal tissue). Also, the “% 13C enrichment in plasma” value in data set [6] is reported as 5-22%.
